The values below are quoted from earlier work in patent publication US20210069213A1, “COMPOSITION AND METHOD OF TREATMENT FOR DRY A.M.D. (AGE RELATED MACULAR DEGENERATION)” (EYE CO PTY LTD, priority 2018, published 2021).

The target in the data set is T1, mineralocorticoid receptor (Homo sapiens, UniProt P08235).
T1 sequence (P08235 1-984): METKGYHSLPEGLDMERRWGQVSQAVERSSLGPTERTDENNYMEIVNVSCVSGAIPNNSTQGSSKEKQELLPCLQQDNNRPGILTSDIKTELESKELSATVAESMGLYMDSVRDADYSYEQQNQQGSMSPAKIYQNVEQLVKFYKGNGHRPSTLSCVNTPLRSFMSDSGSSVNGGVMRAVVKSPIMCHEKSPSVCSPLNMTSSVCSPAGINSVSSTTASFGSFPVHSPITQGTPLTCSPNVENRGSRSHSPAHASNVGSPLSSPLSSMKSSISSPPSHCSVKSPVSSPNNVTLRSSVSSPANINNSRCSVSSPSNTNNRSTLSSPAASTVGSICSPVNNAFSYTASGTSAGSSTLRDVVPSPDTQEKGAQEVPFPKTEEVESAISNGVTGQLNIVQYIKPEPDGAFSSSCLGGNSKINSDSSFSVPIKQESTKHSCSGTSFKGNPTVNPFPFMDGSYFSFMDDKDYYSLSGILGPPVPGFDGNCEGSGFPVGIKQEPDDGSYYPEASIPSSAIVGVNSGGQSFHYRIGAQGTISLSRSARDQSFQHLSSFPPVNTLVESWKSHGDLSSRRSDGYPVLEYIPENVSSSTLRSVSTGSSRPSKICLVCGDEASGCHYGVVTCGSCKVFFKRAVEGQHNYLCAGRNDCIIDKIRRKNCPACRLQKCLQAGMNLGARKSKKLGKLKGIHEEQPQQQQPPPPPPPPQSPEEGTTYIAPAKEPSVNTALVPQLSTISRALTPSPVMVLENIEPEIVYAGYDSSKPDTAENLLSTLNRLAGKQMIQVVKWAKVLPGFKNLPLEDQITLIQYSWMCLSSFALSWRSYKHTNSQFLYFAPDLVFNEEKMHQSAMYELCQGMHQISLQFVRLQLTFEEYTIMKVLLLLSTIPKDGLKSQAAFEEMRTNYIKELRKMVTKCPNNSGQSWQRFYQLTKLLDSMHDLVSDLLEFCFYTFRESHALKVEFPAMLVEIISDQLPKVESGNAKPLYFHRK
To be noted: Table 1; hydrocortisone (cortisol) = 1; cited from earlier work.

As for `CC(=O)OCC(=O)[C@@]1(O)CC[C@H]2[C@@H]3CCC4=CC(=O)CC[C@]4(C)[C@@]3(F)[C@@H](O)C[C@@]21C` [Fludrocortisone acetate, 9-α-Fiuoro-11 β. 17 α, 21-trihydroxy-4-pregnene-3, 20 dione acetate], the MR potency is 200.
